Source: US20240358713A1, “PHARMCAEUTICAL COMPOSITION CONTAINING BENZOXAZEPINE DERIVATIVES, AND A METHOD FOR TREATING CANCER” (Yarmouk University, priority 2023, published 2024)
Entries after “also recorded” stand apart in the source; their conditions may differ.

Experiments:
[1] = tested on: colon adenocarcinoma Caco-2; assay: MTT cytotoxic / anti-proliferative assay, Caco-2; type: cell-based, human; conditions: MTT
[2] = tested on: human fibroblast cell lines (F2); assay: MTT cytotoxic / anti-proliferative assay, normal fibroblast; type: cell-based
Method: (§1) The benxoxazepine derivative compound of the present disclosure was dissolved in DMSO to give a […] concentration. The DMSO concentration was less than 1.0% in all experiments and controls.
(§2) The evaluation of anti-proliferative activity was preformed to different cancer cells named human cervical adenocarcinoma (HeLa), adenocarcinoma human alveolar basal epithelial cells (A549), human breast cancer (MCF-7), colon adenocarcinoma Caco-2, compared with human fibroblast cell lines (F2). All cells were grown in Dulbecco's modified Eagle's minimal essential medium (DMEM), supplemented with 25 mM glucose, 10% inactivated fetal bovine serum (Flow, McLean, VA, USA), and 1% penicillin/streptomycin, and maintained at 37° C. in a humidified incubator with 5% CO2. The cells with 30-40 passages were used for further investigations.
(§3) Exponentially growing cells A549, HeLa, Caco-2, MCF-7, and normal fibroblast cell cells have been washed and seeded at 3×10^3 cells/well (100 μL/well) in 96 well microplates (Greiner, Germany). […] In vitro anti-proliferative activity was measured by the cell growth inhibition assay using 3-(4,5-dimethyl-thiazol-2-yl)-2,5-di-phenyltetrazolium bromide (MTT) assay according to the manufacturer's instructions (Promega Corporation, Madison, WI). Briefly, the assay measured the formation of blue formazan product as a result of the reduction of MTT by mitochondrial dehydrogenase, which indicates the normal function of mitochondria and cell viability. The amount of formazan was quantified using a microplate reader (Thermo Fisher Scientific, Waltham, MA, USA) and compared to the optical density obtained for the control (untreated) at 570 nm. The IC50 values were calculated according to the equation for Boltzmann sigmoidal concentration response curve using the nonlinear regression models (GraphPad, Prism Version 7, San Diego, CA, USA). The average of three replicates of IC50 values were calculated and mentioned in the present disclosure Table 1. […]

[3] = tested on: human cervical adenocarcinoma (HeLa); assay: MTT cytotoxic / anti-proliferative assay, HeLa; type: cell-based
Method: as §1, §2, §3

[4] = tested on: human breast cancer (MCF-7); assay: MTT cytotoxic / anti-proliferative assay, MCF-7; type: cell-based
Method: as §1, §2
(§4) Exponentially growing cells A549, HeLa, Caco-2, MCF-7, and normal fibroblast cell cells have been washed and seeded at 3×10^3 cells/well (100 μL/well) in 96 well microplates (Greiner, Germany). After 24 h, cells were confluent, and media was changed, and cells were incubated with the compound of the present disclosure (200-1 μg/mL) for 24 h. In vitro anti-proliferative activity was measured by the cell growth inhibition assay using 3-(4,5-dimethyl-thiazol-2-yl)-2,5-di-phenyltetrazolium bromide (MTT) assay according to the manufacturer's instructions (Promega Corporation, Madison, WI). Briefly, the assay measured the formation of blue formazan product as a result of the reduction of MTT by mitochondrial dehydrogenase, which indicates the normal function of mitochondria and cell viability. The amount of formazan was quantified using a microplate reader (Thermo Fisher Scientific, Waltham, MA, USA) and compared to the optical density obtained for the control (untreated) at 570 nm. The IC50 values were calculated according to the equation for Boltzmann sigmoidal concentration response curve using the nonlinear regression models (GraphPad, Prism Version 7, San Diego, CA, USA). The average of three replicates of IC50 values were calculated and mentioned in the present disclosure Table 1.
(§5) The anti-proliferative activity of the investigated compound of formula 1 of the present disclosure was expressed in IC50 values (the concentration needed to inhibit 50% of cell growth) compared to untreated cells (negative control).

[5] = tested on: adenocarcinoma human alveolar basal epithelial cells (A549); assay: MTT cytotoxic / anti-proliferative assay, A549; type: cell-based
Method: as §1, §2, §4, §5

[6] = tested on: release of TNF-α of normal fibroblast cell; assay: TNF-α release ELISA, normal fibroblast; type: cell-based, human; conditions: 1, 5, 10, 25, 50 μg/mL, overnight, ELISA of supernatant
Method: (§6) Non-treated cells were used as negative controls. […] All incubation steps were performed at room temperature.

[7] = tested on: release of TNF-α of HeLa cell lines; assay: TNF-α release ELISA, HeLa; type: cell-based, human; conditions: 1, 5, 10, 25, 50 μg/mL, overnight, ELISA of supernatant
Method: as §6

[8] = tested on: release of TNF-α of MCF-7 cell lines; assay: TNF-α release ELISA, MCF-7; type: cell-based, human; conditions: 1, 5, 10, 25, 50 μg/mL, overnight, ELISA of supernatant
Method: as §6

[9] = tested on: release of TNF-α of A549 cell lines; assay: TNF-α release ELISA, A549; type: cell-based, human; conditions: 1, 5, 10, 25, 50 μg/mL, overnight, ELISA of supernatant
Method: as §6

[10] = tested on: release of IL-6 of normal fibroblast cell; assay: IL-6 release ELISA, normal fibroblast; type: cell-based, human; conditions: 1, 5, 10, 25, 50 μg/mL, overnight, ELISA of supernatant
Method: as §6

[11] = MTT cytotoxic / anti-proliferative assay, Caco-2; type: cell-based, human; conditions: human; calculated SI for cancer cell Caco-2; SI higher than 1.0 considered selective to cancer cell; read-out: Selectivity index (SI) Caco-2
[12] = tested on: release of IL-6 of MCF-7 cell lines; assay: IL-6 release ELISA, MCF-7; type: cell-based, human; conditions: 1, 5, 10, 25, 50 μg/mL, overnight, ELISA of supernatant
Method: as §6

[13] = tested on: release of TNF-α of Caco-2 cell lines; assay: TNF-α release ELISA, Caco-2; type: cell-based, human; conditions: 1, 5, 10, 25, 50 μg/mL, overnight, ELISA of supernatant
Method: as §6

[14] = tested on: release of IL-6 of HeLa cell lines; assay: IL-6 release ELISA, HeLa; type: cell-based, human; conditions: 1, 5, 10, 25, 50 μg/mL, overnight, ELISA of supernatant
Method: as §6

[15] = tested on: release of IL-6 of A549 cell lines; assay: IL-6 release ELISA, A549; type: cell-based, human; conditions: 1, 5, 10, 25, 50 μg/mL, overnight, ELISA of supernatant
Method: as §6

[16] = 24 h incubation, average of three replicates
[17] = MTT, 24 h incubation, average of three replicates

In the case of C[S+](C)[O-] [DMSO %, dimethyl sulfoxide], the “IC50 Caco-2 (DMSO %)” value ([1]; DMSO, value as % DMSO) is reported as 23.40 ± 3.20%, the “IC50 Fibroblast (DMSO %)” value ([2]; DMSO, value as % DMSO) is reported as 0.13 ± 0.02% and the “IC50 HeLa (DMSO %)” value ([3]; DMSO, value as % DMSO) is reported as 0.15 ± 0.02%. For the same molecule, the “IC50 MCF-7 (DMSO %)” value ([4]; MTT, DMSO, value as % DMSO) was 0.097 ± 0.02% and the “IC50 A549 (DMSO %)” value ([5]; MTT, DMSO, value as % DMSO) was 0.33 ± 0.05%.

With N.N.[Cl][Pt][Cl] [Cisplatin, cisplatin, reference compound] the “effect on the release of TNF-α, normal fibroblast cells” value [6] was “not able to induce the release”, the “effect on the release of TNF-α, HeLa” value [7] was “release TNF-α” and the “effect on the release of TNF-α, MCF-7” value [8] was “release TNF-α”. The “IC50 Fibroblast” value [2, 16] was 2.83 ± 0.12 µg/mL, the “IC50 HeLa” value [3, 16] was 0.13 µg/mL and the “effect on the release of TNF-α, A549” value [9] was “release TNF-α”. For the same molecule, the “IC50 MCF-7” value [4, 17] was 1.51 ± 0.10 µg/mL, the “effect on the release of IL-6, normal fibroblast cells” value [10] was “not able to induce the release” and the “IC50 A549” value [5, 17] was 3.13 ± 0.53 µg/mL.

For c1ccc2c3c(ccc2c1)OCCn1c-3nc2ccccc21 [compound of the general Formula (I)], the “effect on the release of TNF-α, normal fibroblast cells” value [6] was “not able to induce the release”, the selectivity ratio at 24 h [11] was 0.48 and the IC50 ([1]; Homo sapiens, Caco-2, 24 h incubation, average of three replicates) was 41.3 µg/mL. The IC50 ([2]; Homo sapiens, Fibroblast, 24 h incubation, average of three replicates) was 19.9 ± 1.4 µg/mL, the “effect on the release of IL-6, MCF-7” value [12] was “stimulated the release of IL-6” and the “effect on the release of IL-6, MCF-7” value ([12]; listed as tested compound) was “able to stimulate the release of IL-6”. For the same molecule, the “effect on the release of TNF-α, Caco-2” value [13] was “only 50 μg/mL concentration was able to stimulate Caco-2 cell lines to significantly release TNF-α”, the “effect on the release of TNF-α, Caco-2” value ([13]; listed as tested compound) was “able to stimulate Caco-2 cell lines to significantly release TNF-α when treated with 50 μg/mL concentration only” and the “effect on the release of IL-6, HeLa” value [14] was “stimulated the release of IL-6”. For the same molecule, the “effect on the release of IL-6, HeLa” value ([14]; listed as tested compound) was “able to stimulate the release of IL-6”, the IC50 ([3]; Homo sapiens, HeLa, 24 h incubation, average of three replicates) was 0.003 µg/mL and the IC50 ([4]; Homo sapiens, MCF7, MTT, 24 h incubation, average of three replicates) was 17.6 ± 0.72 µg/mL. For the same molecule, the “Selectivity index (SI) MCF-7” value ([4]; calculated SI for cancer cell MCF-7, SI higher than 1.0 considered selective to cancer cell) was 1.13, the “effect on the release of IL-6, normal fibroblast cells” value ([10]; listed as tested compound) was “no effect; also recorded: not able to induce the release” and the IC50 ([5]; Homo sapiens, A549, MTT, 24 h incubation, average of three replicates) was 15.7 ± 0.54 µg/mL. The “Selectivity index (SI) A549” value ([5]; calculated SI for cancer cell A549, SI higher than 1.0 considered selective to cancer cell) was 1.27, the “effect on the release of IL-6, A549” value [15] was “stimulated the release of IL-6” and the “effect on the release of IL-6, A549” value ([15]; listed as tested compound) was “able to stimulate the release of IL-6”.
